The text below walks through data of publication PMC7665585, “Antidepressive effect of an inward rectifier K^+ channel blocker peptide, tertiapin-RQ” (PLoS ONE, 2020).

“Also recorded” adds a separate entry of the source. Bridge positions count the residues as written; N and C are the ends. Ends that are not written are not given here. Peptide text beside a SMILES is read from it. Bounds are passed on as bounds.

In the first assay the target is T1, rat ROMK (Rattus norvegicus, UniProt P35560).
T1 construct: expressed in transfected cells; host or cells: 293T cell line 208-4 (lentiviral transduction, GFP coexpressed)
T1 sequence (P35560 1-391): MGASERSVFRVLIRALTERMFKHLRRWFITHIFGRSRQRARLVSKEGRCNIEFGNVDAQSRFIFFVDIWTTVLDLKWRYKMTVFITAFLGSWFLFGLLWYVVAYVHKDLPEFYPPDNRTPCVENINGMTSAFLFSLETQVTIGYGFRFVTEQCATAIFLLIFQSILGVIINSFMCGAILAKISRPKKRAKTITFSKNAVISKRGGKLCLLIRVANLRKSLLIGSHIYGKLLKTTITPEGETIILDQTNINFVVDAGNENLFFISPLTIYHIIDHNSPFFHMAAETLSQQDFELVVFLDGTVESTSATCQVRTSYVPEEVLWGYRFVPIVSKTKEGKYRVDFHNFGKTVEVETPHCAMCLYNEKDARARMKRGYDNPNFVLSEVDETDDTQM
Description: Whole-cell patch-clamp of ROMK currents in 208–4 cells. It is filed as cell-based. Particulars: blockade at 1 μM estimated from fitted Hill curve (four parameters), whole-cell conductance, n = 3–6. An excerpt:
The cDNAs for rat ROMK and mouse GIRK1, 2, and 4 were generously donated by Drs Mikio Hayashi (Kansai Medical University) and David Weaver (Vanderbilt University). The ROMK channels were stably expressed by a cell line, 208–4, which was transduced with lentiviral vectors coexpressing the channel and green fluorescent protein (GFP) as described previously. The GIRK genes, cloned in a pCMV6 plasmid (Origene Technologies Inc, Rockville, MD), were transiently expressed in 293T cells with calcium phosphate transfection. GIRK channel currents were recorded 24 h after transfection.
Cells grown on small cover glasses (3 × 18 mm) were placed in a recording chamber. Whole-cell currents were recorded in Tyrode solution using an Axopatch 200B amplifier (Axon Instruments, Foster City, CA) at 25°C. Tyrode solution contained (in mM): NaCl 140, KCl 5.4, NaH2PO4 0.33, CaCl2 2, MgCl2 1, HEPES 5, and glucose 5.5 (pH 7.4 adjusted with NaOH). High K^+ Tyrode solution (KCL 50 mM, NaCl 95 mM, and others were the same as standard Tyrode solution) was used for the recording of GIRK channels. Patch pipettes pulled from borosilicate glass (Narishige, Tokyo, Japan) were filled with an internal solution containing (in mM): K-aspartate 66, KCl 71.5, KH2PO4 1, EGTA 5, HEPES 5, and MgATP 3 (pH 7.4 adjusted with KOH). Recordings were digitized at 10 kHz, and low-pass filtered at 2 kHz. ROMK, Kir2.1, and GIRK currents were evoked with step pulses of 400 msec from -150 mV to 10 mV in 10 mV increments from a holding potential of -70 mV. Whole-cell currents were recorded 60 sec after the peptide application and those from 100 to 300 msec of the step pulses were averaged. Liquid junction potential or capacitive transient was not corrected or compensated. Whole-cell conductance was calculated as the slope of the current-voltage (I-V) relationship from -140 mV to -100 mV and normalized to the initial value (0 μM TPN), in which BaCl2-resistant current was subtracted and indicted as a percentage.
For TPN-RQ(C5S) [Peptide 46], the “Activity (ROMK channel blocking activity, percentage of blockade at 1 μM)” value is on record as “- (-, <20%)”.

The assay is the same for the next values; noted with them: blockade at 1 μM estimated from fitted Hill curve (four parameters), whole-cell conductance, n = 3–6, read-out: Activity (ROMK channel blocking activity, percentage of blockade at 1 μM).
For the molecule “ARIIPHQK-NH2 [Peptide 23, TPN-RQ 7-13(R7A) + K]”, the inhibition at 1 µM was less than 20%.

As to `CC[C@H](C)[C@@H]1NC(=O)[C@H](CCCNC(=N)N)NC(=O)[C@H](CCCNC(=N)N)NC(=O)[C@H](CC(N)=O)NC(=O)[C@@H]2CSSC[C@@H](C(=O)NCC(=O)N[C@@H](CCCCN)C(=O)N[C@@H](CCCCN)C(N)=O)NC(=O)[C@H](CCCCN)NC(=O)[C@H](CCCCN)NC(=O)[C@H](Cc3c[nH]c4ccccc34)NC(=O)[C@H](CSSC[C@H](N)C(=O)N[C@@H](CC(N)=O)C(=O)N2)NC(=O)[C@H](CCC(N)=O)NC(=O)[C@H](Cc2c[nH]cn2)NC(=O)[C@@H]2CCCN2C(=O)[C@H]([C@@H](C)CC)NC1=O` [Peptide 70, TPN-RQ(Δ1A/Δ2L)] (H-CNCNRRIIPHQCWKKCGKK-NH2; disulfide 1-12, 3-16), the inhibition at 1 µM was 60 to 80%.

Consider `CC[C@H](C)[C@@H]1NC(=O)[C@H](CCCNC(=N)N)NC(=O)[C@H](CCCNC(=N)N)NC(=O)[C@H](CC(N)=O)NC(=O)[C@@H](NC(=O)[C@@H](N)CC(N)=O)CSSC[C@@H](C(=O)N[C@@H](Cc2c[nH]c3ccccc23)C(=O)N[C@@H](CCCCN)C(=O)N[C@@H](CCCCN)C(N)=O)NC(=O)[C@H](CCC(N)=O)NC(=O)[C@H](Cc2c[nH]cn2)NC(=O)[C@@H]2CCCN2C(=O)[C@H]([C@@H](C)CC)NC1=O` [Peptide 39, TPN-RQ 4–17] (H-NCNRRIIPHQCWKK-NH2; disulfide 2-11), for which the inhibition at 1 µM was less than 20%.

Regarding `CC[C@H](C)[C@@H]1NC(=O)[C@H](C)NC(=O)[C@H](CCCNC(=N)N)NC(=O)[C@H](CC(N)=O)NC(=O)[C@@H]2CSSC[C@@H](C(=O)NCC(=O)N[C@@H](CCCCN)C(=O)N[C@@H](CCCCN)C(N)=O)NC(=O)[C@H](CCCCN)NC(=O)[C@H](CCCCN)NC(=O)[C@H](Cc3c[nH]c4ccccc34)NC(=O)[C@H](CSSC[C@H](NC(=O)[C@H](CC(C)C)NC(=O)[C@H](C)N)C(=O)N[C@@H](CC(N)=O)C(=O)N2)NC(=O)[C@H](CCC(N)=O)NC(=O)[C@H](Cc2c[nH]cn2)NC(=O)[C@@H]2CCCN2C(=O)[C@H]([C@@H](C)CC)NC1=O` [Peptide 59, TPN-RQ(R8A)] (H-ALCNCNRAIIPHQCWKKCGKK-NH2; disulfide 3-14, 5-18), the inhibition at 1 µM is 60 to 80%.

In the case of `CC[C@H](C)[C@@H]1NC(=O)[C@H](CCCNC(=N)N)NC(=O)[C@H](CCCNC(=N)N)NC(=O)[C@H](CC(N)=O)NC(=O)[C@@H]2CSSC[C@@H](C(=O)N[C@@H](C)C(=O)N[C@@H](CCCCN)C(=O)N[C@@H](CCCCN)C(N)=O)NC(=O)[C@H](CCCCN)NC(=O)[C@H](CCCCN)NC(=O)[C@H](Cc3c[nH]c4ccccc34)NC(=O)[C@H](CSSC[C@H](NC(=O)[C@H](CC(C)C)NC(=O)[C@H](C)N)C(=O)N[C@@H](CC(N)=O)C(=O)N2)NC(=O)[C@H](CCC(N)=O)NC(=O)[C@H](Cc2c[nH]cn2)NC(=O)[C@@H]2CCCN2C(=O)[C@H]([C@@H](C)CC)NC1=O` [Peptide 67, TPN-RQ(G19A)] (H-ALCNCNRRIIPHQCWKKCAKK-NH2; disulfide 3-14, 5-18), the inhibition at 1 µM was 60 to 80%.

As to `CC[C@H](C)[C@@H]1NC(=O)[C@H](CCCNC(=N)N)NC(=O)[C@H](CC(N)=O)NC(=O)[C@@H]2CSSC[C@@H](C(=O)NCC(=O)N[C@@H](CCCCN)C(=O)N[C@@H](CCCCN)C(N)=O)NC(=O)[C@H](CCCCN)NC(=O)[C@H](CCCCN)NC(=O)[C@H](Cc3c[nH]c4ccccc34)NC(=O)[C@H](CSSC[C@H](NC(=O)[C@H](CC(C)C)NC(=O)[C@H](C)N)C(=O)N[C@@H](CC(N)=O)C(=O)N2)NC(=O)[C@H](CCC(N)=O)NC(=O)[C@H](Cc2c[nH]cn2)NC(=O)[C@@H]2CCCN2C1=O` [Peptide 52, TPN-RQ(Δ8R/ΔI9)] (H-ALCNCNRIPHQCWKKCGKK-NH2; disulfide 3-12, 5-16), the inhibition at 1 µM is less than 20%.

Turning to `CC[C@H](C)[C@@H]1NC(=O)[C@H](CCCNC(=N)N)NC(=O)[C@H](CCCNC(=N)N)NC(=O)[C@H](CC(N)=O)NC(=O)[C@@H]2CSSC[C@@H](C(=O)NCC(=O)N[C@@H](CCCCN)C(=O)N[C@@H](CCCCN)C(N)=O)NC(=O)[C@H](C)NC(=O)[C@H](C)NC(=O)[C@H](Cc3c[nH]c4ccccc34)NC(=O)[C@H](CSSC[C@H](NC(=O)[C@H](CC(C)C)NC(=O)[C@H](C)N)C(=O)N[C@@H](CC(N)=O)C(=O)N2)NC(=O)[C@H](CCC(N)=O)NC(=O)[C@H](Cc2c[nH]cn2)NC(=O)[C@@H]2CCCN2C(=O)[C@H]([C@@H](C)CC)NC1=O` [Peptide 66, TPN-RQ(K16A/K17A)] (H-ALCNCNRRIIPHQCWAACGKK-NH2; disulfide 3-14, 5-18), the inhibition at 1 µM was 20 to 40%.

As for `CC[C@H](C)[C@@H]1NC(=O)[C@H](CCCNC(=N)N)NC(=O)[C@H](CC(N)=O)NC(=O)[C@@H](NC(=O)[C@H](CC(N)=O)NC(=O)[C@H](CO)NC(=O)[C@H](CC(C)C)NC(=O)[C@H](C)N)CSSC[C@@H](C(=O)NCC(=O)N[C@@H](CCCCN)C(=O)N[C@@H](CCCCN)C(N)=O)NC(=O)[C@H](CCCCN)NC(=O)[C@H](CCCCN)NC(=O)[C@H](Cc2c[nH]c3ccccc23)NC(=O)[C@H](CO)NC(=O)[C@H](CCC(N)=O)NC(=O)[C@H](Cc2c[nH]cn2)NC(=O)[C@@H]2CCCN2C(=O)[C@H]([C@@H](C)CC)NC(=O)[C@H]([C@@H](C)CC)NC1=O` [Peptide 49, TPN-Q(C3S/C14S)] (H-ALSNCNRIIIPHQSWKKCGKK-NH2; disulfide 5-18), the inhibition at 1 µM was less than 20%.

`CC[C@H](C)[C@@H]1NC(=O)[C@H](CCCNC(=N)N)NC(=O)[C@H](CCCNC(=N)N)NC(=O)[C@H](CC(N)=O)NC(=O)[C@@H]2CSSC[C@@H](C(=O)NCC(=O)N[C@@H](CCCCN)C(=O)N[C@@H](C)C(N)=O)NC(=O)[C@H](CCCCN)NC(=O)[C@H](CCCCN)NC(=O)[C@H](Cc3c[nH]c4ccccc34)NC(=O)[C@H](CSSC[C@H](NC(=O)[C@H](CC(C)C)NC(=O)[C@H](C)N)C(=O)N[C@@H](CC(N)=O)C(=O)N2)NC(=O)[C@H](CCC(N)=O)NC(=O)[C@H](Cc2c[nH]cn2)NC(=O)[C@@H]2CCCN2C(=O)[C@H]([C@@H](C)CC)NC1=O` [Peptide 69, TPN-RQ(K21A)] (H-ALCNCNRRIIPHQCWKKCGKA-NH2; disulfide 3-14, 5-18): the inhibition at 1 µM was 40 to 60%.

For the molecule `CC[C@H](C)[C@@H]1NC(=O)[C@H](CCCNC(=N)N)NC(=O)[C@H](CCCNC(=N)N)NC(=O)[C@H](CC(N)=O)NC(=O)[C@@H]2CSSC[C@@H](C(=O)NCC(=O)N[C@@H](CCCCN)C(=O)N[C@@H](CCCCN)C(N)=O)NC(=O)[C@H](CCCCN)NC(=O)[C@H](CCCCN)NC(=O)[C@H](C)NC(=O)[C@H](CSSC[C@H](NC(=O)[C@H](CC(C)C)NC(=O)[C@H](C)N)C(=O)N[C@@H](CC(N)=O)C(=O)N2)NC(=O)[C@H](CCC(N)=O)NC(=O)[C@H](Cc2c[nH]cn2)NC(=O)[C@@H]2CCCN2C(=O)[C@H]([C@@H](C)CC)NC1=O` [Peptide 65, TPN-RQ(W15A)] (H-ALCNCNRRIIPHQCAKKCGKK-NH2; disulfide 3-14, 5-18), the inhibition at 1 µM was 20 to 40%.

Take `CC[C@H](C)[C@@H]1NC(=O)[C@H](CCCNC(=N)N)NC(=O)[C@H](CCCNC(=N)N)NC(=O)[C@H](CC(N)=O)NC(=O)[C@H](CO)NC(=O)[C@H](CC(N)=O)NC(=O)[C@@H](NC(=O)[C@@H](N)CCC(N)=O)CSSC[C@@H](C(=O)N[C@@H](Cc2c[nH]c3ccccc23)C(=O)N[C@@H](CCCCN)C(N)=O)NC(=O)[C@H](CCC(N)=O)NC(=O)[C@H](CCCCN)NC(=O)[C@@H]2CCCN2C(=O)[C@H]([C@@H](C)CC)NC1=O` [Peptide 44, Q + TPN-RQ 3-16(C5S/H12K)] (H-QCNSNRRIIPKQCWK-NH2; disulfide 2-13): the inhibition at 1 µM was less than 20%.

Turning to `CC[C@H](C)[C@@H]1NC(=O)[C@H](CCCNC(=N)N)NC(=O)[C@H](CCCNC(=N)N)NC(=O)[C@H](CC(N)=O)NC(=O)[C@@H](N)CSSC[C@@H](C(N)=O)NC(=O)[C@H](CCC(N)=O)NC(=O)[C@H](Cc2c[nH]cn2)NC(=O)[C@@H]2CCCN2C(=O)[C@H]([C@@H](C)CC)NC1=O` [Peptide 35, TPN-RQ 5–14] (H-CNRRIIPHQC-NH2; disulfide 1-10), the inhibition at 1 µM is less than 20%.

As for NCNRIIIP-NH2 [Peptide 7, TPN 4–11], the inhibition at 1 µM is less than 20%.

Still in this assay, the particulars now being: whole-cell recordings.
Consider TPN-RQ(C5S) [Peptide 46], for which the “ROMK blocking activity (in words)” value was “little blocking activity; also recorded: scarcely blocked the channel”.
